According to US20060166867A1, “Novel conjugates of polysaccharides and uses thereof” (priority 2003, published 2006):
Where “and” joins values, the source holds several entries; their conditions need not be identical. Equal values may be shown once. Read-outs that look alike come from different tables or passages of the source.

Tests used:
[1] = system: HIV-1 IIIB; assay: microbe, parasite or virus in culture; assay type: cell-based; conditions: Table 3; against HIV-1 IIIB virus; read-out: EC50
Description: Inhibition of HIV-1 cell replication was tested using the cMAGI assay, which is based on the ability of HIV-1 TAT to transactivate the expression of an integrated β-galactosidase reporter gene driven by the HIV-LTR (B. Chackeria et al., J. Virol., (1997) 71, 3932; Collins et al., Nat. Med. (2000) 6, 475). The β-galactosidase reporter is modified to remain localized in the nucleus where it can be detected with the X-gal (5-bromo-4-chloro-3indoyl-β-D-galactopyranoside) substrate as an intense nuclear stain within a few days of infection.
(§1) HIV-1 isolates were propagated by subculture in MT2 cells (Litovchick et al. (2001) supra). Aliquots of cell-free culture supernatants were used as viral inoculum. PAACs were dissolved in the RPMI 1640 medium. Cytotoxicity determinations were carried out in MT2 cells by trypan blue exclusion assay. Viral inhibition was determined by incubating MT2 or cMAGI HIV-1 reporter cells with 0.2-0.5 multiplicity of infection of HIV-1 wild type or resistant virus for 4 days at 37° C. in the presence or absence of various concentrations of pAACs. HIV-1 infection of cMAGI cells was determined by counting the number of HIV-1-infected cells (stained blue). The cytopathic effects of the viral infection of MT2 cells were also analyzed by microscopic assessment of syncytium formation.

[2] = in vitro; assay type: cell-based; conditions: human, MT2 cells; Table 3; trypan blue exclusion; read-out: Cytotoxicity
Description: Cytotoxicity of the various pAACs was determined using the trypan blue exclusion assay. In brief, a sample of the cell suspension was diluted 1:1 (v/v) with 0.4% trypan blue and the cells were counted using a hemocytometer. Results are expressed as the percentage of dead cells.
as §1

[3] = biological target: T1, CXCR4 (Homo sapiens, UniProt P61073); assay: Competition with 12G5 mAb binding to CXCR4 on MT2 cells (flow cytometry); conditions: 80 μM; read-out: % Inhibition of 12G5 mAb binding to CXCR4
T1 construct: incubated at 4° C. with anti-CXCR4 mAb, 12G5, conjugated to phycoerithrine (PE); endogenous in cells; host or cells: MT2 cells
Description: Interaction of pAACs and arginine peptides with CXCR4 coreceptor: Interactions of pAACs and arginine-peptides with CXCR4 were determined by flow cytometry (FACS-Scan, Becton Dickinson) as previously described (Litovich (2001) supra). In brief, 0.5×10^6 MT2 cells were washed with ice-cold PBS containing 0.1% sodium azide (wash buffer) and were incubated at 4° C. with anti-CXCR4 mAb, 12G5, conjugated to phycoerithrine (PE), in the absence or presence of different concentrations of pAACs and arginine peptides. After 30 minutes of incubation, the cells were washed with ice-cold wash buffer and fixed in PBS containing 1% paraformaldehyde. Non-specific fluorescence was assessed using an isotype control. For each sample 10,000 events were acquired. Data were analyzed and processed using CellQuest™ software (Becton Dickinson).

[4] = system: Streptococcus bovis ATCC 9809; assay: MIC, broth microdilution; assay type: cell-based; conditions: Gram positive reference strain
Description: (§2) Minimal Inhibition Concentration (MIC) measurements: The Minimal Inhibitory Concentration (MIC) was generally determined by the Broth Microdilution method (based on the protocol described in Clinical and Laboratory Standard Institute (CLSI) NCCLS (2003) M7-A6), as follows:
(§3) A stock solution of each of the tested compounds was prepared by diluting the compound to a 2,560 μg/ml concentration with an appropriate solvent. The stock solution was then serially 2-fold diluted in 96-well microdilution trays using Cation-Adjusted Mueller-Hinton Broth (CAMHB) until reaching the desired range of concentrations, whereas each well contained double the final working concentration. Each row further had one growth control well (medium+inoculum only), and one sterility control well (medium+tested compound). Plates were stored at −70° C. until used.
(§4) The tested microorganisms were used as fresh overnight cultures on blood agar (for gram-positive organisms) or MacConkey agar (for gram-negatives). A standardized inoculum suspension was prepared by the direct colony suspension method, using sterile saline (equivalent to a 0.5 McFarland standard).
(§5) Thus, 50 μl of the inoculum suspension were added to each tested well (except for the sterility control well), and […] was performed during 18-24 hours (depending on the tested microorganism or compound) at 35° C.

[5] = system: E. coli U3075921; assay: MIC, broth microdilution; assay type: cell-based, Escherichia coli; conditions: clinical isolate, Table 7
Description: as §2, §3, §4, §5

[6] = system: cMAGI cells; conditions: FITC derivatives, 5 and 15 μM, 30 minutes at 37° C.
Description: Cellular uptake using pAACs and polyarginine peptide-fluorescent derivatives: cMAGI cells were incubated in a 8-well plate (2000 cells/well) with a pAACs-FITC or a peptide-FITC derivative at a final concentration of 5 and 15 μM, for 30 minutes at 37° C. After incubation, cells were washed 3 times with phosphate buffered saline 3 times and were subjected to confocal microscopy measurements (Olympus IX70 FV500 confocal laser scanning microscope).

[7] = system: Staphylococcus aureus ATCC 24213; conditions: Gram positive reference strain
[8] = system: S. aureus MSSA; conditions: Gram positive clinical isolate
[9] = system: S. aureus MRSA; conditions: Gram positive clinical isolate
[10] = system: S. epidermidis MSSE; conditions: Gram positive clinical isolate
[11] = system: S. epidermidis MRSE; conditions: Gram positive clinical isolate
[12] = system: Enterococcus faecalis (clinical isolate); conditions: Gram positive clinical isolate
[13] = system: Escherichia coli ATCC 25922; conditions: Gram negative reference strain
[14] = system: Pseudomonas aeruginosa ATCC 27853; conditions: Gram negative reference strain
[15] = system: Klebsiella pneumoniae ATCC 13883; conditions: Gram negative reference strain
[16] = system: Proteus mirabilis ATCC 7002; conditions: Gram negative reference strain
[17] = system: Acinetobacter baumannii ATCC 19606; conditions: Gram negative reference strain
[18] = system: Moraxella catarrhalis ATCC 25238 (Branhamella); conditions: Gram negative reference strain
[19] = system: E. Coli-ESBL negative; conditions: Gram negative clinical isolate
[20] = system: E. Coli-ESBL positive; conditions: Gram negative clinical isolate
[21] = system: K. pneumoniae-ESBL negative; conditions: Gram negative clinical isolate
[22] = system: K. pneumoniae-ESBL positive; conditions: Gram negative clinical isolate
[23] = system: Serratia marcescens; conditions: Gram negative clinical isolate
[24] = system: Enterobacter cloacae; conditions: Gram negative clinical isolate
[25] = system: Enterobacter aerogenes; conditions: Gram negative clinical isolate
[26] = system: P. aeruginosa-gentamicin^s, meropenem^s; conditions: Gram negative clinical isolate
[27] = system: P. aeruginosa-gentamicin^r, meropenem^r; conditions: Gram negative clinical isolate
[28] = system: A. baumannii-amikacin^s, meropenem^s; conditions: Gram negative clinical isolate
[29] = system: A. baumannii-amikacin^r, meropenem^r; conditions: Gram negative clinical isolate
[30] = system: VRE faecium; conditions: clinical isolate, Table 7
[31] = system: Enterococcus faecium (clinical isolate); assay: MIC, broth microdilution; assay type: cell-based; conditions: Gram positive clinical isolate
[32] = system: S. epidermidis B32954; assay: MIC, broth microdilution; assay type: cell-based, Staphylococcus epidermidis; conditions: Gram positive clinical isolate
[33] = system: Enterococcus faecalis B84939-vancomycin^r; assay: MIC, broth microdilution; assay type: cell-based; conditions: Gram positive clinical isolate
[34] = system: P. aeruginosa R17093; assay: MIC, broth microdilution; assay type: cell-based, Pseudomonas aeruginosa; conditions: Gram negative clinical isolate; for MIC: read-out: Minimum Inhibitory Concentration
[35] = system: E. coli U23773^r; conditions: Gram negative clinical isolate
[36] = system: Enterobacter cloacae W25161; conditions: Gram negative clinical isolate
[37] = system: A. baumannii R16998; conditions: Gram negative clinical isolate
[38] = read-out: Minimum Inhibitory Concentration

T1 sequence (P61073 whole entry): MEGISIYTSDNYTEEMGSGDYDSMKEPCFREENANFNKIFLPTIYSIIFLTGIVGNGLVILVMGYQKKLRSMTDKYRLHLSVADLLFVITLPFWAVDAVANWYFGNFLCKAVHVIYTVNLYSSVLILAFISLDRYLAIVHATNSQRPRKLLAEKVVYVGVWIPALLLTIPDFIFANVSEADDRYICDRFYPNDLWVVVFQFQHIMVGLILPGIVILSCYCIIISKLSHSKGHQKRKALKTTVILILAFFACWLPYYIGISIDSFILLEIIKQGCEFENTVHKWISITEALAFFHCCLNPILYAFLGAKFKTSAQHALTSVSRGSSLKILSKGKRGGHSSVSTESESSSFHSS

Row | Compound | EC50 [1] | Minimum Inhibitory Concentration [8] | Minimum Inhibitory Concentration [9] | Minimum Inhibitory Concentration [10] | Minimum Inhibitory Concentration [11] | Minimum Inhibitory Concentration [12] | Minimum Inhibitory Concentration [19] | Minimum Inhibitory Concentration [20] | Minimum Inhibitory Concentration [21] | Minimum Inhibitory Concentration [22] | Minimum Inhibitory Concentration [23] | Minimum Inhibitory Concentration [24] | Minimum Inhibitory Concentration [25] | Minimum Inhibitory Concentration [26] | Minimum Inhibitory Concentration [27] | Minimum Inhibitory Concentration [28] | Minimum Inhibitory Concentration [29] | further results
1 | N=C(N)NCCC[C@H](NC(=O)[C@H](CCCNC(=N)N)NC(=O)[C@H](CCCNC(=N)N)NC(=O)[C@H](CCCNC(=N)N)NC(=O)[C@H](CCCNC(=N)N)NC(=O)[C@H](CCCNC(=N)N)NC(=O)[C@H](CCCNC(=N)N)NC(=O)[C@H](CCCNC(=N)N)NC(=O)[C@@H](N)CCCNC(=N)N)C(=O)O [Compound 5, L-Arg-9-mer-NH2] | 33 µM | 128.0 mg/liter and 63.25 μM | > 128.0 mg/liter and 63.25 μM | 12.0 mg/liter and 5.93 μM | 32.0 mg/liter and 15.81 μM | 128.0 mg/liter and 63.25 μM | > 256.0 mg/liter and 126.50 μM | 256.0 mg/liter and 126.50 μM | > 256.0 mg/liter and 126.50 μM | > 256.0 mg/liter and 126.50 μM | > 256.0 mg/liter and 126.50 μM | > 256.0 mg/liter and 126.50 μM | > 256.0 mg/liter and 126.50 μM | > 256.0 mg/liter and 126.50 μM | > 256.0 mg/liter and 126.50 μM | > 256.0 mg/liter and 126.50 μM | > 256.0 mg/liter and 126.50 μM | CC50 [2]: 120 µM; inhibition at 80 µM [3]: 52.8%; Minimum Inhibitory Concentration [4]: 128.0 mg/L; Minimum Inhibitory Concentration [5]: > 256.0 mg/L; cellular uptake [6]: lower uptake efficiency; Minimum Inhibitory Concentration [7]: 128.0 mg/liter and 63.25 μM; Minimum Inhibitory Concentration [13]: > 256.0 mg/liter and 126.50 μM; Minimum Inhibitory Concentration [14]: > 256.0 mg/liter and 126.50 μM; Minimum Inhibitory Concentration [15]: > 256.0 mg/liter and 126.50 μM; Minimum Inhibitory Concentration [16]: > 256.0 mg/liter and 126.50 μM; Minimum Inhibitory Concentration [17]: > 256.0 mg/liter and 126.50 μM; Minimum Inhibitory Concentration [18]: 32.0 mg/liter and 15.81 μM; Minimum Inhibitory Concentration [30]: > 128.0 mg/L
2 | L-Arg-9-mer-neomycin [Compound 8] | 30 ± 7 µM | 4.0 mg/liter and 1.37 μM | 2.0 mg/liter and 0.68 μM | 0.5 mg/liter and 0.17 μM | 0.5 mg/liter and 0.17 μM | 256.0 mg/liter and 87.67 μM | 4.0 mg/liter and 1.37 μM | 8.0 mg/liter and 2.74 μM | 3.0 mg/liter and 1.03 μM | 1.5 mg/liter and 0.51 μM | 4.0 mg/liter and 1.37 μM | 8.0 mg/liter and 2.74 μM | 8.0 mg/liter and 2.74 μM | 48.0 mg/liter and 16.44 μM | 128.0 mg/liter and 43.83 μM | 6.0 mg/liter and 2.06 μM | 128.0 mg/liter and 43.83 μM | Minimum Inhibitory Concentration [31]: 32.0 mg/L; MIC [31, 38]: 10.96 µM; Minimum Inhibitory Concentration [32]: 0.5 mg/L; MIC [32, 38]: 0.17 µM; Minimum Inhibitory Concentration [33]: 32.0 mg/L; MIC [33, 38]: 10.96 µM; Minimum Inhibitory Concentration [34]: 128.0 mg/L; MIC ([34]; listed as L-Neo-9-mer): 43.83 µM; MIC [34]: 43.83 µM; Minimum Inhibitory Concentration ([29]; listed as L-Neo-9-mer): 57.92 µM; Minimum Inhibitory Concentration [35]: 96.0 mg/liter and 32.88 μM; Minimum Inhibitory Concentration ([35]; listed as L-Neo-9-mer): 32.88 µM; Minimum Inhibitory Concentration [36]: 8.0 mg/liter and 2.74 μM; Minimum Inhibitory Concentration [37]: 128.0 mg/liter and 43.83 μM
